Experiments:
Italian ryegrass = assay: Test A preemergence; assay type: in vivo, Lolium multiflorum
Summary of the method: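 Scoring: eye-based comparison with untreated controls, 0 for no effect through 100 for complete control, at about day 10. Treatments: directed soil spray preemergence; foliar spray postemergence on 2–10 cm plants at the one- to two-leaf stage. Medium: loam soil with sand.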

ducksalad = assay: Test C flooded paddy test; assay type: in vivo, Heteranthera limosa; details: Flood, scale 0 to 100 (0 no effect, 100 complete control), 13 to 15 days
Summary of the method: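 Under a constant 3 cm flood, test compounds went directly into the paddy water. Following 13 to 15 days of greenhouse growth, treated species and controls were compared by eye.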

[1] = 1000 g ai/ha, 0 to 100 scale, 0 no effect, 100 complete control, approx. 10 days
[2] = 500 g ai/ha, 0 to 100 scale where 0 is no effect and 100 is complete control
[3] = 31 g ai/ha, 0 to 100 scale where 0 is no effect and 100 is complete control, visual, approximately 10 days
[4] = 125 g ai/ha, 0 to 100 scale where 0 is no effect and 100 is complete control

Clc1cnc(Oc2ccccc2-n2cc(C3CC3)nn2)nc1 [Compound 160, 5-chloro-2-[2-(4-cyclopropyl-1H-1,2,3-triazol-1-yl)phenoxy]pyrimidine]
Ryegrass, Italian plant response rating (Italian ryegrass; [1]): 90

N#Cc1cn(-c2c(C#N)cccc2Oc2ncc(Cl)cn2)nn1 [Compound 273]
Ryegrass, Italian plant response rating (0 to 100 scale) (Italian ryegrass; 125 g ai/ha): 20
Ryegrass, Italian plant response rating (Italian ryegrass; [2]): 40

N#Cc1cnn(-c2c(Oc3ncc(F)cn3)cccc2C(F)F)c1 [Compound 240]
Ryegrass, Italian plant response rating (0 to 100 scale) (Italian ryegrass; 125 g ai/ha): 20
Ryegrass, Italian plant response rating (Italian ryegrass; [2]): 70

N#Cc1cccc(Oc2ncc(Cl)cn2)c1-n1cc(C(F)F)cn1 [Compound 253, 3-(5-chloropyrimidin-2-yl)oxy-2-[4-(difluoromethyl)-1H-pyrazol-1-yl]benzonitrile]
Plant response rating, Ryegrass, Italian (Italian ryegrass; [3]): 20
Ryegrass, Italian plant response rating (0 to 100 scale) (Italian ryegrass; 125 g ai/ha): 20

FC(F)c1cn(-c2ccccc2Oc2ncc(Cl)cn2)nn1 [Compound 147, 5-chloro-2-[2-[4-(difluoromethyl)-1H-1,2,3-triazol-1-yl]phenoxy]pyrimidine]
Plant response rating, Ryegrass, Italian (Italian ryegrass; [4]): 10
Ryegrass, Italian plant response rating (Italian ryegrass; [2]): 100

FCc1cccc(Oc2ncc(Cl)cn2)c1-n1cc(I)cn1 [Compound 245]
Plant response rating, Ryegrass, Italian (Italian ryegrass; [3]): 0
Ryegrass, Italian plant response rating (0 to 100 scale) (Italian ryegrass; 125 g ai/ha): 0

FCc1cccc(Oc2ncc(F)cn2)c1-n1cc(I)cn1 [Compound 152]
Plant response rating, Ryegrass, Italian (Italian ryegrass; [3]): 0
Plant response rating, Ryegrass, Italian (Italian ryegrass; [4]): 0

FCc1cn(-c2ccccc2Oc2ncc(Cl)cn2)nn1 [Compound 123]
Ryegrass, Italian plant response rating (Italian ryegrass; [1]): 70

Clc1cnc(Oc2cccc(Br)c2-n2cc(I)nn2)nc1 [Compound 117]
Plant response rating, Ryegrass, Italian (Italian ryegrass; [4]): 20
Ryegrass, Italian plant response rating (Italian ryegrass; [2]): 30

N#Cc1cccc(Oc2ncc(Cl)cn2)c1-n1cc(SC(F)(F)F)cn1 [Compound 134, 3-[(5-chloro-2-pyrimidinyl)oxy]-2-[4-(trifluoromethylthio)-1-pyrazolyl]benzonitrile]
Plant response rating, Ryegrass, Italian (Italian ryegrass; [4]): 20
Ryegrass, Italian plant response rating (Italian ryegrass; [2]): 40

N#Cc1cnn(-c2c(Br)cccc2Oc2ncc(Cl)cn2)c1 [Compound 140]
Plant response rating, Ryegrass, Italian (Italian ryegrass; [3]): 0
Plant response rating, Ryegrass, Italian (Italian ryegrass; [4]): 0

CC(C)c1cnn(-c2c(C#N)cccc2Oc2ncc(Cl)cn2)c1 [Compound 85]
Plant response rating, Ryegrass, Italian (Italian ryegrass; [4]): 0
Ryegrass, Italian plant response rating (Italian ryegrass; 500 g ai/ha, 0 to 100 scale, 0 no effect, 100 complete control, approx. 10 days): 40

Fc1cccc(Oc2ncc(Cl)cn2)c1-n1cc(Cl)cn1 [Compound 177]
Plant response rating, Ducksalad (ducksalad; 31 g ai/ha): 20
Plant response rating, Ducksalad (ducksalad; 62 g ai/ha): 60
Plant response rating, Ducksalad (ducksalad; 125 g ai/ha): 85
Plant response rating, Ducksalad (ducksalad; 250 g ai/ha): 95

N#Cc1cccc(Oc2ncc(Cl)cn2)c1-n1cc(OC(F)F)cn1 [Compound 97]
Plant response rating, Ducksalad (ducksalad; 31 g ai/ha): 0
Plant response rating, Ducksalad (ducksalad; 62 g ai/ha): 40
Plant response rating, Ducksalad (ducksalad; 125 g ai/ha): 75
Plant response rating, Ducksalad (ducksalad; 250 g ai/ha): 80

FC(F)c1cnn(-c2ccccc2Oc2ncc(Cl)cn2)c1 [Compound 80, 5-chloro-2-[2-[4-(difluoromethyl)-1H-pyrazol-1-yl]phenoxy]pyrimidine]
Plant response rating, Ducksalad (ducksalad; 250 g ai/ha): 50
Plant response rating, Ducksalad (ducksalad; 500 g ai/ha): 75
Plant response rating, Ducksalad (ducksalad; 1000 g ai/ha): 80
Plant response rating, Ducksalad (ducksalad; 2000 g ai/ha): 80

FC(F)c1cnn(-c2c(Cl)cccc2Oc2ncc(Cl)cn2)c1 [Compound 192]
Plant response rating, Ducksalad (ducksalad; 31 g ai/ha): 0
Plant response rating, Ducksalad (ducksalad; 62 g ai/ha): 0
Plant response rating, Ducksalad (ducksalad; 125 g ai/ha): 70
Plant response rating, Ducksalad (ducksalad; 250 g ai/ha): 75

N#Cc1cnn(-c2c(C#N)cccc2Oc2ncc(Br)cn2)c1 [Compound 135]
Plant response rating, Ryegrass, Italian (Italian ryegrass; [4]): 0
Ryegrass, Italian plant response rating (Italian ryegrass; [2]): 20

Fc1cccc(Oc2ncc(Cl)cn2)c1-n1cc(C(F)F)nn1 [Compound 141, 5-chloro-2-[2-[4-(difluoromethyl)-1H-1,2,3-triazol-1-yl]-3-fluorophenoxy]pyrimidine]
Plant response rating, Ducksalad (ducksalad; 31 g ai/ha): 65
Plant response rating, Ducksalad (ducksalad; 62 g ai/ha): 80
Plant response rating, Ducksalad (ducksalad; 125 g ai/ha): 95
Plant response rating, Ducksalad (ducksalad; 250 g ai/ha): 100
Plant response rating, Ryegrass, Italian (Italian ryegrass; [3]): 30
Plant response rating, Ryegrass, Italian (Italian ryegrass; [4]): 80

FC(F)Oc1cnn(-c2c(Cl)cccc2Oc2ncc(Cl)cn2)c1 [Compound 258]
Plant response rating, Ryegrass, Italian (Italian ryegrass; [3]): 0
Ryegrass, Italian plant response rating (0 to 100 scale) (Italian ryegrass; 125 g ai/ha): 10
